Source: US5707798A, “Identification of ligands by selective amplification of cells transfected with receptors” (priority 1994, dated 1998)
One block for each compound: values may come before it.

Key:
[1] = target: T1, EP3 prostanoid receptor (Homo sapiens, UniProt P43115); format: cell-based; conditions: EP3, Table 2; read-out: Ligand EC50
T1 construct: expressed in transfected cells; host or cells: NIH 3T3 (mouse fibroblasts, ATCC CRL 1658)
T1 sequence (P43115 1-390): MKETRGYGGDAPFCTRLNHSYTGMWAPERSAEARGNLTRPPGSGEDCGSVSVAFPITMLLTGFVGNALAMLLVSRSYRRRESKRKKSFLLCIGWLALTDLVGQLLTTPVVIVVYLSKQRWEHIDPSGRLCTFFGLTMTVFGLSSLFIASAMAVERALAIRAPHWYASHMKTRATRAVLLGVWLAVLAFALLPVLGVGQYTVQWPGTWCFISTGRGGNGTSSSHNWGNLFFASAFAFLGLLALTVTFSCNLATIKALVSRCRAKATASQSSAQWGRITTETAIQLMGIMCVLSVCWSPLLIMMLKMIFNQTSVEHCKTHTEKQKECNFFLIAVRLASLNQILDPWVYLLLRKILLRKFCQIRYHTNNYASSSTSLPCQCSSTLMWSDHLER

[2] = target: T2, alpha 2 C4 adrenergic receptor (Homo sapiens, UniProt P18825); format: cell-based; conditions: α2-C4, Table 3; relative to other ligands at the receptor
T2 construct: expressed in transfected cells; host or cells: NIH 3T3 (mouse fibroblasts)
T2 sequence (P18825 1-462): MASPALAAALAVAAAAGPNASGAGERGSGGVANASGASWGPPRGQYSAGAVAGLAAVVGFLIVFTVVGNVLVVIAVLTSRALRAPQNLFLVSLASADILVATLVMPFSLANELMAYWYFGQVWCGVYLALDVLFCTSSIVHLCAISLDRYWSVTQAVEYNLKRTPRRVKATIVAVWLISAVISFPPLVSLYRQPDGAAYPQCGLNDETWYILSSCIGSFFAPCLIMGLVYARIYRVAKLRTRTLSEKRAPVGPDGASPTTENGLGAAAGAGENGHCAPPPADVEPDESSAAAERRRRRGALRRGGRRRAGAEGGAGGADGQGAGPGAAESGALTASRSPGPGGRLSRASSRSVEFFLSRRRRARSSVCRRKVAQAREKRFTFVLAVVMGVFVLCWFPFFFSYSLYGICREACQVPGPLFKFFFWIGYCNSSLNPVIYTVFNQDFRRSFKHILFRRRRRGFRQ

[3] = tested on: certain alpha adrenergic receptors; conditions: cited from earlier work
[4] = tested on: Muscarinic acetylcholine receptors that stimulate phospholipase c (m1, m3, m5); conditions: cited from earlier work
[5] = target: T3, m2 muscarinic receptor (Homo sapiens, UniProt P08172); assay: cell-based; format: cell-based
T3 construct: expressed in transfected cells; host or cells: NIH 3T3 (mouse fibroblasts)
T3 sequence (P08172 1-466): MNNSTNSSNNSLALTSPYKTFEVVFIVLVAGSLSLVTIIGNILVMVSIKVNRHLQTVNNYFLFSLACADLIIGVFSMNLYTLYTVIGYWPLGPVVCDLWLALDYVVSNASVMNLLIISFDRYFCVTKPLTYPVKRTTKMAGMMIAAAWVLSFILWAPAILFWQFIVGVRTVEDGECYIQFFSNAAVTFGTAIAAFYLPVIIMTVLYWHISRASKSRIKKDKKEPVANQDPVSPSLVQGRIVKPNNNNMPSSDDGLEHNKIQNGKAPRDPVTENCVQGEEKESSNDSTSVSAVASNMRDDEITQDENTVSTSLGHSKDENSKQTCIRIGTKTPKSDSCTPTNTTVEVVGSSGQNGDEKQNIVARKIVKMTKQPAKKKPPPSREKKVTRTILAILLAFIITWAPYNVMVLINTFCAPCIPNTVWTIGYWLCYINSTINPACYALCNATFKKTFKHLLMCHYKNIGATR

[6] = target: T4, m5 muscarinic receptor (Homo sapiens, UniProt P08912); format: cell-based
T4 construct: expressed in transfected cells; host or cells: NIH 3T3 (mouse fibroblasts)
T4 sequence (P08912 1-532): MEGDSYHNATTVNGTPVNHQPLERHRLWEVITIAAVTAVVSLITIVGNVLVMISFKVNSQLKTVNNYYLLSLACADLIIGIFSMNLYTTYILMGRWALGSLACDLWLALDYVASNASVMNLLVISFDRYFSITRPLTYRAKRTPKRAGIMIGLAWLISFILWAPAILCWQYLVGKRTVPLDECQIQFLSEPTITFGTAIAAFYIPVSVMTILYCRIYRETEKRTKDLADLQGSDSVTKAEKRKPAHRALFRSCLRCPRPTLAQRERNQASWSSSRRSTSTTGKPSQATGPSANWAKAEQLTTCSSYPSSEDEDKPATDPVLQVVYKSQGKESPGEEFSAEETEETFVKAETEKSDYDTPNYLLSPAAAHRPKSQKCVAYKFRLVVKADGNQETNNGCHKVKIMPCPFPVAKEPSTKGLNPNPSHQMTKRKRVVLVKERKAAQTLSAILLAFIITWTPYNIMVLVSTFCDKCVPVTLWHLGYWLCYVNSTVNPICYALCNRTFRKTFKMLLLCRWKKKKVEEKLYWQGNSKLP

[7] = target: T3, m2 muscarinic receptor; assay: β-galactosidase levels, m2 receptor in the absence of expressed G-protein; format: cell-based
[8] = tested on: NIH 3T3 cells; assay: Amplification response in the absence of the indicated target receptor; format: cell-based, mouse; conditions: absence of the ligand's target receptor
Experimental: FIG. 16 illustrates the maximal ligand-induced responses of the indicated receptors, as assayed using cotransfected cultures using a Multiple Receptor Format similar to that described in FIG. 11. […] Cells were incubated in wells of a 96 well plate for 4 days with each ligand. Maximal responses were calculated by fitting the data to a model of a single mass-action site.

[9] = target: T4, m5 muscarinic receptor; assay: Focus induction in NIH 3T3 cells transfected with m5 DNA; format: cell-based; conditions: low concentrations
[10] = target: T3, m2 muscarinic receptor; assay: cell-based
[11] = target: T4, m5 muscarinic receptor; format: cell-based; remark: listed apart in the source
[12] = target: T5, m1 muscarinic receptor (Homo sapiens, UniProt P11229); assay: cell-based
T5 sequence (P11229 1-460): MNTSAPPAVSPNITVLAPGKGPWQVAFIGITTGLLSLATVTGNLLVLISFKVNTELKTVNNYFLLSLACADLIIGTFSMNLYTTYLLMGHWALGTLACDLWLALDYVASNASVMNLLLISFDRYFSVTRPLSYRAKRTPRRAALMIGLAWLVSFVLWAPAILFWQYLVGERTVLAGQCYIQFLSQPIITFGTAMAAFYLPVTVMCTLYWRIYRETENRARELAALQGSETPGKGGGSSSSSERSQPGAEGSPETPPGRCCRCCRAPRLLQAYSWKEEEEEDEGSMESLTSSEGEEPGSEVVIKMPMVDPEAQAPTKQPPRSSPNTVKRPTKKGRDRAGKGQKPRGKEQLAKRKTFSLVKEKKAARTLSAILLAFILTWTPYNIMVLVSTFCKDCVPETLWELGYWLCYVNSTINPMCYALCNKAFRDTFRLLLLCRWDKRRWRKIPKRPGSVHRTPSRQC

[13] = target: m3 muscarinic receptor (Homo sapiens, UniProt P20309); assay: cell-based
Chain of m3 muscarinic receptor (P20309 whole entry): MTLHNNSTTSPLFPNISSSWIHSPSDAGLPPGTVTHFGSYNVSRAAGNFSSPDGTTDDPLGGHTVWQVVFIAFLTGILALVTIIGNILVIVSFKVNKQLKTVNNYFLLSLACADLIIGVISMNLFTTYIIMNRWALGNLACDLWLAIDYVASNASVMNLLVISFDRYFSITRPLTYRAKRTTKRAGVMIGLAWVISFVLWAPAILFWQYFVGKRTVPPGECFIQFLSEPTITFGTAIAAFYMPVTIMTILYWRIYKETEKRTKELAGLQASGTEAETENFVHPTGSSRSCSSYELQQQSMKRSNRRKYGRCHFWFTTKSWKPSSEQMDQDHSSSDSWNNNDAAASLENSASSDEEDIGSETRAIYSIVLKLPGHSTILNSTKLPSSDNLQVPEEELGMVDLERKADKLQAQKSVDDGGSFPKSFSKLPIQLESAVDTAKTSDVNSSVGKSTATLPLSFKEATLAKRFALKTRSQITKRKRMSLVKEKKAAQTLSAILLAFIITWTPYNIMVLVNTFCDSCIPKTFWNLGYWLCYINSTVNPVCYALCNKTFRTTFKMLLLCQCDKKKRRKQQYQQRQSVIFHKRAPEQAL

[14] = target: T6, m4 muscarinic receptor (Homo sapiens, UniProt P08173); assay: cell-based
T6 sequence (P08173 1-479): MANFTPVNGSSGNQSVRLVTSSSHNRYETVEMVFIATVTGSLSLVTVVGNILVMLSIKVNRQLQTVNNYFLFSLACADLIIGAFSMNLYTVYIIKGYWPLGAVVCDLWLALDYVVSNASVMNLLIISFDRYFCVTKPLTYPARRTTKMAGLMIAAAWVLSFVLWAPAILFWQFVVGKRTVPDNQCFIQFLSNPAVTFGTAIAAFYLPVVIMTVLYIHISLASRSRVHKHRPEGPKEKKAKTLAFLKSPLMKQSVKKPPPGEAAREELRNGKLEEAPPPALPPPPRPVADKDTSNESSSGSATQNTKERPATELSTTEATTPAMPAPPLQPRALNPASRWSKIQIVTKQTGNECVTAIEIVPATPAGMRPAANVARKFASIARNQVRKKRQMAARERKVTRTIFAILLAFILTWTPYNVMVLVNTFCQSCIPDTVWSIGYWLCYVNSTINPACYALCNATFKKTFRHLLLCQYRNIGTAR

[15] = target: trk C receptor; design: Rmax: key to the marks not given beside the values
[16] = target: trk A receptor; conditions: Table 2

EC50 [1]: 270 ± 190 nM
Compound: O=C(O)CCCCCC[C@H]1C(=O)CC[C@@H]1/C=C/[C@@H](O)COc1ccccc1 [MB28767]

Compound: NC[C@H](O)c1ccc(O)c(O)c1 [Norepinephrine]
Max Response [2]: +
growth stimulation [3]: stimulates

Compound: CN1[C@@H]2CC[C@H]1C[C@@H](OC(=O)C(CO)c1ccccc1)C2 (stereo partly shown) [atropine]
block of agonist-stimulated phospholipase c, mitogenesis and foci [4]: blocked

Compound: C[N+](C)(C)CCOC(N)=O [carbachol]
time to plateau of β-galactosidase induction ([5]; m2/q-i5): about five
induction of β-galactosidase levels ([5]; m2/q-i5, time-course): significantly induce β-galactosidase levels
time to plateau of β-galactosidase induction ([6]; m5): about five
induction of β-galactosidase levels ([6]; m5, time-course): significantly induce β-galactosidase levels
effect on β-galactosidase levels [7]: no effect on β-galactosidase levels
induction of responses [8]: unable to induce responses
focus response [9]: robust ligand-dependent responses

Compound: O[Si](CCCN1CCCCC1)(c1ccc(F)cc1)C1CCCCC1 (stereo not shown) [p-F-HHSiD]
Ki [10]: 501 nM
Ki [11]: 79.4 nM
Ki [12]: 251 nM
Ki [13]: 31.6 nM
Ki [14]: 50.1 nM

Ligand EC50 ([15]; Table 2): 0.0024 ± 0.0011 µg/mL
Rmax ([15]; relative to other clones): ++++
Ligand EC50 [16]: > 1 µg/mL
Compound: NT3: related neutrotrophic factor NT3
